Where a SMILES comes first, the peptide text is derived from it. [ ]: non-standard residue; d: D form. βAla = NCCC(=O)O
Tests used:
αIIbβIIIa = αIIbβIIIa (Homo sapiens, UniProt P05106+P08514); conditions: cited from earlier work
αvβ3 = αvβ3 (Homo sapiens, UniProt P05106+P06756); conditions: cited from earlier work
Jurkat cells = conditions: cited from earlier work
Jurkat cell = conditions: read-out: IC50, blocking Jurkat cell adhesion to CS-1 coated plates; cited from earlier work
[1] = biological tests (not specified); conditions: at 200 μM
[2] = test system: 120 kDa chymotryptic fragment of fibronectin; conditions: cited from earlier work
leukocyte cell = conditions: cited from earlier work

Sequence of αIIbβIIIa (P08514 32-887 limits assumed): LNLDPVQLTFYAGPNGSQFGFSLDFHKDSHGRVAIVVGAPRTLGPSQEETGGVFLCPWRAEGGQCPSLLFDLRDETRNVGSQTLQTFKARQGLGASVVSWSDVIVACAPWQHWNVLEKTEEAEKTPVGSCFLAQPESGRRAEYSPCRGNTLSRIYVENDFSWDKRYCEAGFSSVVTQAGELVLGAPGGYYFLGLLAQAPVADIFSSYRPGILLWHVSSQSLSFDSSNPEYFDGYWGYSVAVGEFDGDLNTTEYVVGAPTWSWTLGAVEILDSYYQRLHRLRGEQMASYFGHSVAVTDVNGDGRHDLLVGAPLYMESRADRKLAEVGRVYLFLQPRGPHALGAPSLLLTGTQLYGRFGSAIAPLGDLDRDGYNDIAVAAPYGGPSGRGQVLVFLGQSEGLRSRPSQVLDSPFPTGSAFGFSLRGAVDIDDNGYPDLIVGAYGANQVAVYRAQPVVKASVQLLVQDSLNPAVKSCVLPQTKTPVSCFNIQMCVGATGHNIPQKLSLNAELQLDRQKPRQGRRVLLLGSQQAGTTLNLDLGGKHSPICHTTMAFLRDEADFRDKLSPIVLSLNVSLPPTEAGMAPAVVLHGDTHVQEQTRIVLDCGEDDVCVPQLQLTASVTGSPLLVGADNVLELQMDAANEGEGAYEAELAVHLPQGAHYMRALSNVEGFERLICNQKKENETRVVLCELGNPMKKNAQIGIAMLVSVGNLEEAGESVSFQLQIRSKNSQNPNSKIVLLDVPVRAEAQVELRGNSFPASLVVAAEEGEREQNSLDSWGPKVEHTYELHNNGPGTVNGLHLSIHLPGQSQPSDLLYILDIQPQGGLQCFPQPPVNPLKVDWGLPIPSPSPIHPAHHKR
Sequence of αIIbβIIIa (P08514 891-1039 partner limits assumed): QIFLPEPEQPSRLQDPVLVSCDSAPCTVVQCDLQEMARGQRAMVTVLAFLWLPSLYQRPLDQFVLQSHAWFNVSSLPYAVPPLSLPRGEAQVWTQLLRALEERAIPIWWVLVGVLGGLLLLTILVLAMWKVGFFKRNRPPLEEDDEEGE
Sequence of αIIbβIIIa (P05106 27-788): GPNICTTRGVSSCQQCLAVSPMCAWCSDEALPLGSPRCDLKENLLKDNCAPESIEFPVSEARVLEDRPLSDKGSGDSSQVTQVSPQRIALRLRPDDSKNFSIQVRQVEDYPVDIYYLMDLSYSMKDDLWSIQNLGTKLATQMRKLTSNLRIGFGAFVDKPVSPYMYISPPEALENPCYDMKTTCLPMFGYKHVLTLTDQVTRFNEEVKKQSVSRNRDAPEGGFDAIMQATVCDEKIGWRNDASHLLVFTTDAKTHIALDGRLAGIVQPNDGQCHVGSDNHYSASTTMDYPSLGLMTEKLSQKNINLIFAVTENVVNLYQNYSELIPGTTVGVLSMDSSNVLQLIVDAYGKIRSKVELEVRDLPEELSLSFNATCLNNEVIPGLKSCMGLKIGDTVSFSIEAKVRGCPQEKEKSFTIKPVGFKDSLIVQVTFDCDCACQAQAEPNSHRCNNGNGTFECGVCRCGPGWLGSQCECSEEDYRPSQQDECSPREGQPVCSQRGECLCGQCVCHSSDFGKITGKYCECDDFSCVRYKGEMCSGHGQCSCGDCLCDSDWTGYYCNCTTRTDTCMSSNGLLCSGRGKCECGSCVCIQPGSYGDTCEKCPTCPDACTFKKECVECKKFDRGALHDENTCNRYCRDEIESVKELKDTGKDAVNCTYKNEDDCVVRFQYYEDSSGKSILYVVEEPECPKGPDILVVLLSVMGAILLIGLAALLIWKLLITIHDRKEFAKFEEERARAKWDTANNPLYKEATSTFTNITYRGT
Sequence of αvβ3 (P06756 31-889 limits assumed): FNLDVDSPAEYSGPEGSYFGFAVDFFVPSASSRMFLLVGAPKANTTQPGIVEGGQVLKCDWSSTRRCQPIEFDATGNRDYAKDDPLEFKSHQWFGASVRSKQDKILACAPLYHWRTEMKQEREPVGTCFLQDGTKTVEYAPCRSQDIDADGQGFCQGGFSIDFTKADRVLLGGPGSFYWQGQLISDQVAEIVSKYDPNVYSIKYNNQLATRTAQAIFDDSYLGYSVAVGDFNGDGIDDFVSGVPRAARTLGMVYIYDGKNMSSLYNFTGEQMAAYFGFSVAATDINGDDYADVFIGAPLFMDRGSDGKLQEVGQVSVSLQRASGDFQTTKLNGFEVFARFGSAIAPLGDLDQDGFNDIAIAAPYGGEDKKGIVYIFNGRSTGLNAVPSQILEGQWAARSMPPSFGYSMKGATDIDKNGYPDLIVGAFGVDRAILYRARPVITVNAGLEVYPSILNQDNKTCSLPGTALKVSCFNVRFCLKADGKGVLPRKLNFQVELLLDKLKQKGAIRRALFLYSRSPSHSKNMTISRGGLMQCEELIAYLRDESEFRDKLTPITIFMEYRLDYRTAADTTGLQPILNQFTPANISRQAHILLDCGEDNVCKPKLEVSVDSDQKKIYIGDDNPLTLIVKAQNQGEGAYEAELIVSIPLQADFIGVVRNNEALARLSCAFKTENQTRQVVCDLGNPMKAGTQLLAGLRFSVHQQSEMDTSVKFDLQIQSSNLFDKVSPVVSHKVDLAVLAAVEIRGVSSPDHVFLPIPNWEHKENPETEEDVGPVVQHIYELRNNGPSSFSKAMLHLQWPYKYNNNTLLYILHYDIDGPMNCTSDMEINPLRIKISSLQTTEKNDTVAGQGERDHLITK
Sequence of αvβ3 (P06756 891-1048 partner limits assumed): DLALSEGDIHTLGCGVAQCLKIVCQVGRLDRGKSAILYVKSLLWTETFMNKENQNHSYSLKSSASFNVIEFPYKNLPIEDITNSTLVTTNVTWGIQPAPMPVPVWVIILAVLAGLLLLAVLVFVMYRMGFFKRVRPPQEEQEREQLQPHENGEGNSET
Sequence of αvβ3 (P05106 27-788): as the sequence (P05106 27-788) above

1-adamantaneacetyl-Cys-Gly-Arg-Gly-Asp-Ser-Pro-Cys
inhibition of function in αIIbβIIIa-dependent assay (αIIbβIIIa): inhibited function
inhibition of function in αvβ3-dependent assay (αvβ3): inhibited function
inhibition of Jurkat cell binding to fibronectin coated plates (Jurkat cells): inhibited the binding
IC50 (Jurkat cell): 30 µM

CC[C@H](C)[C@@H]1NC(=O)CCNC(=O)[C@H](C(C)C)NC(=O)[C@H](CC(=O)O)NC(=O)[C@H](CC(C)C)NC1=O (cyclo(DV[βAla]IL))
activity in biological tests [1]: inactive

Arg-Cys-Asp-thioproline-Cys
inhibition of binding to 120 kDa fibronectin fragment [2]: inhibited the binding
inhibition of leukocyte cell adhesion to fibronectin (leukocyte cell): inhibitor of leukocyte cell adhesion to fibronectin

Cys-Leu-His-Gly-Pro-Glu-Ile-Ieu-Asp-Val-Pro-Ser-Thr
IC50 (Jurkat cell): 30 µM
